This note sets out measurements from publication PMC11945486, “TAS1R2/TAS1R3 Single-Nucleotide Polymorphisms Affect Sweet Taste Receptor Activation by Sweeteners: The SWEET Project” (Nutrients, 2025).

For this assay, the target named is T1, human TAS1R2-R838K (subunit alone) (Homo sapiens, UniProt Q8TE23, R838K).
T1 construct: expressed in transfected cells; host or cells: HEK293T stably expressing Gα16gust44
T1 sequence (Q8TE23 20-839 R838K): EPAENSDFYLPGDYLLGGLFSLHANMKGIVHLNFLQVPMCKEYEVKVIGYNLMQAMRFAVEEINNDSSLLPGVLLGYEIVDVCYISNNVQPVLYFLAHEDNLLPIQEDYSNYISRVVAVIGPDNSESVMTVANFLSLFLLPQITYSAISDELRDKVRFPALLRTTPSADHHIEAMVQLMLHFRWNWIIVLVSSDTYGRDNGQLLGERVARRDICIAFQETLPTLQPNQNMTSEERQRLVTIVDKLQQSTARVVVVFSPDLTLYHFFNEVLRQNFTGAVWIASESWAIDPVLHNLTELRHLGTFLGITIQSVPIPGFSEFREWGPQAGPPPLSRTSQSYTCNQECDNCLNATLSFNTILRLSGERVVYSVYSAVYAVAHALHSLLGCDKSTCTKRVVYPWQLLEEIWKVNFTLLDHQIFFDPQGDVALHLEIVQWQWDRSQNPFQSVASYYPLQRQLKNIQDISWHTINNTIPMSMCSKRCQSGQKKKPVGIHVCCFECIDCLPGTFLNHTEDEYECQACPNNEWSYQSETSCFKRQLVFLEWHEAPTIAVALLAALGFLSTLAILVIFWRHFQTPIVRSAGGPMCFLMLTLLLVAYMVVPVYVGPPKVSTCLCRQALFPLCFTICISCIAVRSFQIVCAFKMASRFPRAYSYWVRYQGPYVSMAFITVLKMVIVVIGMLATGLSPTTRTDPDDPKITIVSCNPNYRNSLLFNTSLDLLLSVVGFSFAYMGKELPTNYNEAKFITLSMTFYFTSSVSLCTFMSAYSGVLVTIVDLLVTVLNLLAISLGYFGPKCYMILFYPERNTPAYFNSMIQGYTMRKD
The assay is described as follows: Calcium mobilisation assay, TAS1R2-R838K subunit alone. In kind it is cell-based. From the text:
The coding sequences for TAS1R2 and TAS1R3 were commercially synthesised, and the human codon was optimised for expression in human cells. The coding sequences of human TAS1R2 and TAS1R3 were subcloned and inserted into the mammalian expression vectors pcDNA6/myc-HisA and pcDNA4/myc-HisA (Invitrogen; Thermo Fisher Scientific; Illkirch, France) between the EcoRI and NotI restriction sites, generating the plasmids pcDNA6-TAS1R2 and pcDNA4-TAS1R3, respectively. To increase protein expression in mammalian cells, an upstream start codon was used, which was a sequence called MAX, corresponding to the QBI SP163 element also described in pcDNA4-HisMax (Invitrogen; Thermo Fisher Scientific; Illkirch, France). To measure the expression level of the receptor by immunohistochemistry, we used the FLAG sequence ([…]) in the C-terminal position, which encodes the FLAG tag epitope. […]
The HEK293T cells were kindly provided by Jay P. Slack (Givaudan Flavors Corporation; Cincinnati, OH, USA). […] The fluorescence intensity was measured for 90 s (excitation 488 nm, emission 510 nm) in an automated fluorometric FlexStation®3 Multi-Mode microplate reader (Molecular Devices; San Jose, CA, USA). […] The Ca^2+ changes were expressed as fractional changes in fluorescent light intensity: ΔF/F = (F − F0)/F0, where F was the fluorescent light intensity at each point, and F0 was the value of emitted fluorescent light prior to stimulus application. To calculate dose–response relationships, the changes in fluorescence upon stimulus application were averaged, mock-subtracted and baseline-corrected. […] The half-maximal effective concentrations (EC50 values) and maximal signal amplitudes were calculated using SigmaPlot software (version 15.0) (Systat Software; San Jose, CA, USA).
For in vitro calcium mobilisation assay performed on hTAS1R2-SNPs, hTAS1R3-SNPs and mTAS1R3-I60T, 6 to 7 concentrations were tested for each sweet compound, plus buffer alone. All concentration–receptor combinations were measured in duplicate, and each experiment was repeated at least 4 times (8 wells/concentration). […]

With `C=C(C)[C@@H]1CC=C(/C=N/O)CC1` [Perillartine, perillartine], the EC50 is 92.4 ± 19.7 µM and the “R1 = Variant EC50/WT EC50” value was 1.0. The “Max ΔF/F0” value (maximal signal amplitude) is listed as 0.35 ± 0.03.
